Results published in patent publication US8673914B2, “Use of phosphodiesterase inhibitors for treating multidrug resistance” (St. John's University, priority 2011, dated 2014).
Marks after values point to notes of the source that are not given here.

Assays:
[1] = MTT cytotoxicity/reversal assay (Example 1); settings: human
Protocol: The KB-C2 and KB-3-1 were kindly provided by Dr. Akiyama (Kagoshima University, Japan). […] Similarly, the HEK/MRP1 (ABCC1) and HEK/ABCB1 cells were generated by transfecting the HEK293 cells with either the MRP1 expression vector or the ABCB1 expression vector. All of the cell lines were grown in Dulbecco's modified Eagle's medium (DMEM) supplemented with 10% bovine serum, 100 units/ml penicillin, and […] streptomycin in a humidified incubator containing 5% CO2 at 37° C.
(§1) The MTT assay was used to assess cytotoxicity. The cultured cells were harvested with trypsin and resuspended in a final concentration of 4×10^3 cells/well for KB-3-1; 7.5×10^3 cells/well for KB-C2; and 8×10^3 for all of the other cell lines used in this study. Cells were seeded evenly in 96-well multiplates. […] After 68 h of incubation, 20 μl of the MTT solution (4 mg/ml) was added to each well, and the plate was further incubated for 4 h at 37° C., allowing viable cells to convert the yellow-colored MTT into dark-blue formazan crystals. Subsequently, the medium was discarded, and 100 μl of DMSO was added into each well to dissolve the formazan crystals, generating purple color. The absorbance was determined at 570 nm by an OPSYS Microplate Reader from DYNEX Technologies, Inc. (Chantilly, Va.). […] The degree of the reversal of multidrug resistance (MDR) was calculated by dividing the IC50 of an anticancer drug, e.g., an antineoplastic or chemotherapeutic drug (agent, compound), in a cell type in the absence of a reversal agent by the IC50 of the anticancer drug in the same cell type in the presence of the reversal agent. The IC50 values were calculated from survival curves using the Bliss method.

[2] = tested on: KB-V1; experiment: MTT cytotoxicity/reversal assay (Example 2); assay type: cell-based, human; settings: alone
Protocol: (§2) The ABCB1-overexpressing drug resistant cell line KB-V1 (generously provided by Dr. Gottesman, NCI, NIH) was established by a stepwise concentration increase of vinblastine in the culture medium of KB-3-1 cells and subsequently culturing these cells in medium with 1 μg/mL of vinblastine. An ABCC1-overexpressing MDR cell line, KB-CV60, was also derived from KB-3-1 cells and was maintained in medium with 1 μg/mL of cepharanthine and 60 ng/mL of vincristine. Both KB-C2 and KB-CV60 cell lines were kindly provided by Dr. Akiyama (Kagoshima University, Japan). HEK293/pcDNA3.1, ABCG2-482-R5, ABCG2-482-G2, and ABCG2-482-T7 cells were established by selection with 2 mg/mL G418 after transfecting HEK293 with either (1) empty pcDNA3.1 vector or (2) pcDNA3.1 vector containing full length ABCG2 coding either (2a) wild-type arginine (R) or mutant (2b) glycine (G) or (2c) threonine (T) at amino acid position 482, respectively. The wild-type ABCG2-overexpressing drug-resistant cell line MCF-7/Flv1000 was cultured in the medium with 1 μM of flavopiridol. […] Another G482 mutant ABCG2-overexpressing drug resistant cell line, S1-M1-80, was maintained in the medium with 80 μM of mitoxantrone. […] All the cell lines were grown as adherent monolayers in flasks with DMEM (Dulbecco's modified Eagle's medium) culture medium (Hyclone Co.) containing 10% bovine serum at 37° C. in a humidified atmosphere of 5% CO2.
(§3) Cells in 96-well plates were preincubated with or without the reversal agents for 1 h and then different concentrations of chemotherapeutic drugs were added into designated wells. After 68 h of incubation, MTT solution (4 mg/mL) was added to each well, and the plate was further incubated for 4 h, allowing viable cells to change the yellow-colored MTT into dark-blue formazan crystals. Subsequently the medium was discarded, and […] of DMSO was added into each well to dissolve the formazan crystals. The absorbance was determined at 570 nm by an OPSYS MR Microplate Reader from DYNEX Technologies, Inc.

[3] = tested on: KB-C2; experiment: MTT cytotoxicity/reversal assay (Example 2); assay type: cell-based, human; settings: alone
Protocol: as §2, §3

[4] = tested on: KB-3-1; experiment: MTT cytotoxicity/reversal assay (Example 2); assay type: cell-based, human; settings: alone
Protocol: as §2, §3

[5] = tested on: MRP7 localization in HEK/MRP7 cells; experiment: Immunofluorescence of MRP7; assay type: cell-based; settings: 5 μM; 72 h
Protocol: HEK/MRP7 cells (1×10^4) were seeded in 24 well plates and cultured overnight. […] Cells were washed with PBS and fixed with 4% paraformaldehyde for 15 min at room temperature and then rinsed with PBS three times. Nonspecific reaction was blocked with 1% BSA for 1 h at room temperature. A polyclonal antibody D19 against MRP7 (1:200) was added and incubated overnight. […] DAPI was used for nuclear staining. Immunofluorescent images were taken with an inverted microscope (model IX70; Olympus, Center Valley, Pa.) with IX-FLA fluorescence and CCD camera.

[6] = tested on: ABCG2-482-R2 (ABCG2); experiment: MTT cytotoxicity/reversal assay (Example 1); settings: +10 μM reversal agent
Protocol: The KB-C2 and KB-3-1 were kindly provided by Dr. Akiyama (Kagoshima University, Japan). HEK293-pcDNA3.1 and wild-type HEK/ABCG2 transfected cells were established by selection with G418 after transfecting HEK293 with either (1) empty pcDNA3.1 vector or (2) pcDNA3.1 vector containing full length of ABCG2 coding arginine (R) at amino acid position 482, and were then cultured in a medium with 2 mg/ml of G418 (ABCG2-482-R2 cells). Similarly, the HEK/MRP1 (ABCC1) and HEK/ABCB1 cells were generated by transfecting the HEK293 cells with either the MRP1 expression vector or the ABCB1 expression vector. All of the cell lines were grown in Dulbecco's modified Eagle's medium (DMEM) supplemented with 10% bovine serum, 100 units/ml penicillin, and […] streptomycin in a humidified incubator containing 5% CO2 at 37° C.
as §1

[7] = tested on: KB-3-1 cells; experiment: [^3H]-paclitaxel efflux (Example 1); assay type: cell-based, human; settings: absence or presence of vardenafil
Protocol: (§4) The cells were washed three times with ice-cold PBS, then suspended in fresh medium with or without reversal agents at 37° C. […] Each sample was placed in scintillation fluid and the radioactivity was measured in a Packard TRI-CARB1 1900CA liquid scintillation analyzer from Packard Instrument Company, Inc. (Downers Grove, Ill.).

[8] = tested on: KB-3-1 cells; experiment: [^3H]-paclitaxel accumulation (Example 1); assay type: cell-based, human; settings: 10 μM
Protocol: as §4

SMILES	IC50 at 68 h [1] [µM]	fold-resistance, paclitaxel [2]	fold-resistance, paclitaxel [3]	fold-resistance, paclitaxel [4]	MRP7 protein localization in plasma membranes [5]	fold reversal, SN-38 [6]	change in effluxed paclitaxel [7]	effect on paclitaxel accumulation [8]
CC(=O)O[C@H]1C(=O)[C@@]2(C)[C@H]([C@H](OC(=O)c3ccccc3)[C@]3(O)C[C@H](OC(=O)[C@H](O)[C@@H](NC(=O)c4ccccc4)c4ccccc4)C(C)=C1C3(C)C)[C@]1(OC(C)=O)CO[C@@H]1C[C@@H]2O [Paclitaxel, paclitaxel]	219 ± 13.2	(1079.6)	(788.5)	(1.0)^c				
CN1CC(=O)N2[C@H](c3ccc4c(c3)OCO4)c3[nH]c4ccccc4c3C[C@@H]2C1=O [Tadalafil, tadalafil]					no alteration of MRP7 protein localization	(1.04)		
CCCc1nc(C)c2c(=O)[nH]c(-c3cc(S(=O)(=O)N4CCN(CC)CC4)ccc3OCC)nn12 [Vardenafil, vardenafil]					no alteration of MRP7 protein localization	(0.97)	No significant change	without altering the levels
